Results taken from article PMC3885398, “Evaluation of the Antitumor Effects of BPR1J-340, a Potent and Selective FLT3 Inhibitor, Alone or in Combination with an HDAC Inhibitor, Vorinostat, in AML Cancer” (PLoS ONE, 2014).

Columns and labels:
FLT3 D835Y = molecular target: T1, FLT3 D835Y (Homo sapiens, UniProt P36888, D835Y); test: Invitrogen SelectScreen kinase profiling / IC50; type: biochemical
T1 sequence (P36888 27-993 D835Y): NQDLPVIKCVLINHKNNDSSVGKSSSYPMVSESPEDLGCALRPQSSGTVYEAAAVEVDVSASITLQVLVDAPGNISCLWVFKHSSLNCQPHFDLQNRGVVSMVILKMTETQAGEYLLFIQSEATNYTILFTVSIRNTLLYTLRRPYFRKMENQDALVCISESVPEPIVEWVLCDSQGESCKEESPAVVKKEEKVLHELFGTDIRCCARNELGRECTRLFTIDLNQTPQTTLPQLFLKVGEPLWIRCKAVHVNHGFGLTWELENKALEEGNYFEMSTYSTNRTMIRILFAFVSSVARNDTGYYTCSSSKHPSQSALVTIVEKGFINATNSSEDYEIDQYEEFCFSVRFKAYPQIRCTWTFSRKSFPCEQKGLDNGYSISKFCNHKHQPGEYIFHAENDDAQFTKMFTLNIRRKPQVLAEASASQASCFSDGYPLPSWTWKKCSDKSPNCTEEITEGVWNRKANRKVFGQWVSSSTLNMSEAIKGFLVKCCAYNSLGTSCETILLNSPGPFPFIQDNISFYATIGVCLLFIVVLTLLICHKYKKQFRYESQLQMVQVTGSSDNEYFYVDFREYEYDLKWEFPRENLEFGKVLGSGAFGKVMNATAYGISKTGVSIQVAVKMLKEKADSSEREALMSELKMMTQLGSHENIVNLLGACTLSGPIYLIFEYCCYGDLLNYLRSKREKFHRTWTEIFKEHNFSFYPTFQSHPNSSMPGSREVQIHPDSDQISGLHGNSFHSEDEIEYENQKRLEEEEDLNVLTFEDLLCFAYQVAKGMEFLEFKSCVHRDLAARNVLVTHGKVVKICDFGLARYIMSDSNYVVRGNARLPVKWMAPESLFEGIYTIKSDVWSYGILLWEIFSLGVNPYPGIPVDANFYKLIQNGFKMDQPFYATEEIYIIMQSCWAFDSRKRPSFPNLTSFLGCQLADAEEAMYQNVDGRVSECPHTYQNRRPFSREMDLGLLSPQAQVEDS
Experimental: The FLT3 and VEGFR1/2 Kinase-Glo kinase assays were performed as reported by our earlier study. The VEGFR3 activity analysis was conducted using the same protocol described in the VEGFR1/2 assay. The kinase inhibition profiling and inhibitory activity of FLT3-D835Y, CSF1R, and TRKA were determined by Invitrogen SelectScreen® kinase profiling service (Carlsbad, California, USA).
BPR1J-340, a urea-substituted 3-phenyl-1H-5-pyrazolylamine-based compound, was designed through chemical modification of sulfonamide series of derivatives (BPR1J-097 series) by a structure-activity relationship (SAR) study (Fig. 1), [32]. For kinase inhibition specificity screening, BPR1J-340 was tested against 59 protein kinases covering the major oncogenic kinases of human protein kinome. […] In addition, BPR1J-340 inhibited TRKA, which is associated with the growth and metastasis of breast cancers, with an IC50 value of 8 nM. Given the high similarity of the ATP binding pockets of FLT3 and the Aurora kinases, the inhibitory activity toward Aurora A and Aurora B were measured. […] Taken together, BPRJ-340 is a selective kinase inhibitor with in vitro activity against FLT3, VEGFR2, VEGFR3 and TRKA receptor tyrosine kinases.

H1975 = test: Cell viability MTS assay; type: cell-based; settings: Homo sapiens, NCI-H1975; H1975, non-leukemia; read-out: Proliferation GI50
Experimental: (§1) Cell viability was assessed with an MTS assay as carried out as the method described previously. Cells were seeded in 96-well plates at a density of 10,000 cells per well for 16 hours and then treated with vehicle or various concentrations of compound in medium. The change in viable cells was quantitated using the MTS method (Promega, Madison, WI, USA) according to the manufacturer's recommended protocol or by cell counting under a microscope. The GC50 value was defined as the amount of compound that caused a 50% reduction in cell viability in comparison with DMSO-treated (vehicle) control and was calculated using Prism version 4 software (Graph-Pad Software, Inc., San Diego, CA, USA). The data are presented as the mean ± S.D. from three independent experiments. Cell growth were measured by trypan blue dye exclusion method. Cells (1×10^4 mL^−1) were cultured in 12-well plates for 24 hours and then treated with different amounts of test compound and the same volumes of vehicle for 72 hours. The number of viable cells was counted by trypan blue dye staining using a hemocytometer at the indicated time point after drug treatment. The result was expressed as the mean ± S.D. from triplicate determinations.

HCT-116 = test: Cell viability MTS assay; type: cell-based; settings: Homo sapiens; HCT-116, non-leukemia; read-out: Proliferation GI50
Experimental: as §1

RT4 = test: Cell viability MTS assay; type: cell-based; settings: Homo sapiens, RT-4; RT4, non-leukemia; read-out: Proliferation GI50
Experimental: as §1

FLT3-ITD = FLT3-ITD (Homo sapiens, UniProt P36888); test: FLT3 phosphorylation in MV4;11 cells, Western blot; type: cell-based; settings: 1 hour
Experimental: Cells were lysed in lysis buffer (50 mM Tris, pH 8.0, 150 mM NaCl, 1% Triton X-100, 0.5% sodium deoxycholate, 0.1% SDS, 1 mM sodium orthovanadate, 1 mM PMSF, and 1 mM DTT). Protein lysates were resolved by SDS-PAGE and transferred onto a polyvinylidene difluoride (PVDF) membrane (Millipore, Bedford, MA, USA). The membranes were immunoblotted with appropriate antibodies and detected using the SuperSignal reagent (Pierce, Rockford, IL, USA) followed by exposure to X-ray film.
To address whether BPR1J-340 was able to inhibit the FLT3 signaling pathway in FLT3-driven cells, MV4;11 cells were treated with different concentrations of BPR1J-340 for 1 hour, and the phosphorylation status of FLT3 and STAT5 (Signal Transducer and Activator of Transcription 5), a critical down-stream modulator that plays a major role in FLT3-ITD signal transduction for cell expansion and survival, was examined by Western blot analysis. […] To investigate the difference in sensitivity between FLT3-WT and the activating mutants FLT3-ITD and FLT3-D835Y to BPR1J-340, HEK293T cells engineered to express FLT3-WT or mutants FLT3 (FLT3-ITD, FLT3-D835Y) were analyzed. […]
Figure 2 BPR1J-340 inhibits FLT3-dependent signaling. […] The phosphorylation status of FLT3 and STAT5 were evaluated by Western blot analysis. […] The FLT3 phosphorylation status in the transfected cells was evaluated by Western blot analysis.

With CCc1cc(NC(=O)NCc2ccc(-c3cc(NC(=O)c4ccc(CN5CCN(C)CC5)cc4)[nH]n3)cc2)no1 [BPR1J-340, N1-(3-4-[([(5-ethyl-3-isoxazolyl)amino]carbonylamino)methyl]phenyl-1H-5-pyrazolyl)-4-[(4-methylpiperazino)methyl]benzamide] the IC50 (FLT3 D835Y; FLT3-D835Y, Invitrogen SelectScreen kinase assay) was 19 nM, the inhibition at 0.1 µM (FLT3 D835Y; FLT3 D835Y, 100 nM) was 78% and the GI50 (H1975) was 2610 nM. The GI50 (HCT-116) was 9.33 µM, the GI50 (RT4) was 7.03 µM and the IC50 (FLT3-ITD) was roughly 1 nM.
